Usually pIC50 stands for the negative decadic logarithm of the IC50, by convention in mol/L. Broadly, the inhibition is the drop in the measured response relative to a control, in per cent.

Molecules are shown by their SMILES. pIC50: −log10 of the molar value. Bounds are passed on as bounds.

What all share (assay type): biochemical
One assay deals with T1, MMP-3 (Homo sapiens, UniProt P08254).
T1 construct: Truncated Prostromelysin-257 was expressed in a soluble form in E.coli; made in house; host or cells: E. coli
T1 sequence (P08254 100-274 limits assumed): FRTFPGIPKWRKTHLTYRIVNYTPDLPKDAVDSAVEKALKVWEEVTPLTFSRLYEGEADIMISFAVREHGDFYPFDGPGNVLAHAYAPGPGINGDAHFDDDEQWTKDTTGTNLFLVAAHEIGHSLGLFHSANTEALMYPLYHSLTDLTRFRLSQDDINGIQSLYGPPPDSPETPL
The assay is described as follows: Automated MMP Profiling Assay, MMP-3 fluorogenic. As to conditions: 96-well automated, P218. The source says:
This assay with each invention compound was run with the three enzymes MMP-3, MMP-9 and MMP-2 in parallel as adapted for a 96-well microtitre plate using a Hamilton A® workstation.

The target of another assay is T2, MMP-9 (Homo sapiens, UniProt P14780).
T2 construct: from tissue; host or cells: human polymorphonuclear leukocytes (PMN) from whole blood (New York Blood Center), PMA-stimulated supernatant
T2 sequence (P14780 107-707 limits assumed): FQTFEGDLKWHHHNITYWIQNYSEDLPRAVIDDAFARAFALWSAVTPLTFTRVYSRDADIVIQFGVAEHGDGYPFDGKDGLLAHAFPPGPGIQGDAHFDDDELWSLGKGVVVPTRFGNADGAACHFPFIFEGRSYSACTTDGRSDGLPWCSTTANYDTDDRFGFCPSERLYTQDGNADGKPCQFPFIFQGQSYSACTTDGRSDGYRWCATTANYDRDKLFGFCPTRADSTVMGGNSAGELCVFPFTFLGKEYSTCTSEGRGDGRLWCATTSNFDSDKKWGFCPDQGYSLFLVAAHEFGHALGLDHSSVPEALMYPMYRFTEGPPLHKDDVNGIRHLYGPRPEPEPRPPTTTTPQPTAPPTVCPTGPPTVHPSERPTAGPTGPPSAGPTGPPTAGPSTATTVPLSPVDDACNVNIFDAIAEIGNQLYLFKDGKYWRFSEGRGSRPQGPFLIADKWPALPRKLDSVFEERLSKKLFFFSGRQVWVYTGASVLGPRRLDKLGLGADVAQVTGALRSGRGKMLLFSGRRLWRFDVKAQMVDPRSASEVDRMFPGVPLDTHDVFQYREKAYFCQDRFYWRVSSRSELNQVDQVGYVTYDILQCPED
The assay is described as follows: Automated MMP Profiling Assay, MMP-9 fluorogenic. As to conditions: for pIC50: 96-well automated, P218.

The target of a further assay is T3, MMP-2 (Homo sapiens, UniProt P08253).
T3 sequence (P08253 110-660): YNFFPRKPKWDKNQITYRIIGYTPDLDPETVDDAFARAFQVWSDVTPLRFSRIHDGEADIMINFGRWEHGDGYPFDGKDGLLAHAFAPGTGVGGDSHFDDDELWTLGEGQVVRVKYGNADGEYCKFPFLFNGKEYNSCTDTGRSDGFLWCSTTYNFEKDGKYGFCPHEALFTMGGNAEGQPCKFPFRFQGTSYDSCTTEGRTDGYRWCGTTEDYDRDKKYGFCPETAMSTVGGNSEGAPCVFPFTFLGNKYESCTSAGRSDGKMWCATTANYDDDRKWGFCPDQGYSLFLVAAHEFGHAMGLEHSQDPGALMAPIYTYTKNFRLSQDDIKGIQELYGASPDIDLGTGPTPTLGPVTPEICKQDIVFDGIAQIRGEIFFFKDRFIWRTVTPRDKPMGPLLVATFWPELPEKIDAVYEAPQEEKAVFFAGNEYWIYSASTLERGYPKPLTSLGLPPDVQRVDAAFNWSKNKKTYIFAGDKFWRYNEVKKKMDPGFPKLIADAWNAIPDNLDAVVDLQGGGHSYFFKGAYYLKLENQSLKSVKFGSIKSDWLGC
The experiment in a line: Automated MMP Profiling Assay, MMP-2 fluorogenic. As to conditions: 96-well automated, P218; read-out: MMP-2 Fluorogenic IC50 (profiling).

In the case of `O=C(CC(CCN1C(=O)c2ccc(OCc3ccccc3)cc2C1=O)C(=O)O)c1ccc(-c2ccc(Cl)cc2)cc1` (stereo not drawn) [Example 405, 2H-Isoindole-2-butanoic acid, α-[2-(4'-chloro[1,1'-biphenyl]-4-yl)-2-oxoethyl]-1,3-dihydro-1,3-dioxo-5-(phenylmethoxy)-], the pIC50 at MMP-3 is 7.12; at MMP-9, 8.24; on MMP-2, 7.10.

Consider `O=C(CC(CCCc1ccccc1)C(=O)O)c1ccc(-c2ccc(OCC3CC3)cc2)cc1` (stereo not drawn) [Example 97, [1,1'-Biphenyl]-4-butanoic acid, 4'-(cyclopropylmethoxy)-γ-oxo-α-(3-phenylpropyl)-], for which the results for the pIC50 against MMP-3, at MMP-9 and at MMP-2 were 6.82, 6.64 and 7.32, respectively.

On to `O=C(O)c1cccc(CCC(CC(=O)c2ccc(-c3ccc(Cl)cc3)cc2)C(=O)O)c1` (stereo not drawn) [Example 148, [1,1'-Biphenyl]-4-butanoic acid, α-[2-(3-carboxyphenyl)ethyl]-4'-chloro-γ-oxo-], for which the figures for the pIC50 at MMP-3, against MMP-9 and at MMP-2 were 7.05, 6.34 and 7.27, respectively.

Consider `COc1cc(CCC(CC(=O)c2ccc(-c3ccc(Cl)cc3)cc2)C(=O)O)cc(OC)c1` (stereo not drawn) [Example 129, [1,1'-Biphenyl]-4-butanoic acid, 4'-chloro-α-[2-(3,5-dimethoxyphenyl)ethyl]-γ-oxo-], for which the negative logarithm of the IC50 (pIC50) is 6.63 against MMP-3, 6.11 against MMP-9 and 7.05 at MMP-2.

On to `C=CCOc1ccc(-c2ccc(C(=O)CC(CCCc3ccccc3)C(=O)O)cc2)cc1` (stereo not drawn) [Example 95, [1,1'-Biphenyl]-4-butanoic acid, γ-oxo-α-(3-phenylpropyl)-4'-(2-propenyloxy)-], for which the results for the pIC50 at MMP-3, against MMP-9 and on MMP-2 were 7.10, 7.11 and 7.59, respectively.

Turning to `Cc1ccc2c(c1)C(=O)N(CCC(CC(=O)c1ccc(-c3ccc(Cl)cc3)cc1)C(=O)O)C2=O` (stereo not drawn) [Example 416, 2H-Isoindole-2-butanoic acid, α[2-(4'-chloro[1,1'-biphenyl]-4-yl)-2-oxoethyl]-1,3-dihydro-5-methyl-1,3-dioxo-], the values for the pIC50 against MMP-3, against MMP-9 and at MMP-2 were 8.02, 8.60 and 7.64, respectively.

With `CCCOc1ccc2c(c1)C(=O)N(CCC(CC(=O)c1ccc(-c3ccc(Cl)cc3)cc1)C(=O)O)C2=O` (stereo not drawn) [Example 406, 2H-Isoindole-2-butanoic acid, α-[2-(4'-chloro[1,1'-biphenyl]-4-yl)-2-oxoethyl]-1,3-dihydro-1,3-dioxo-5-propoxy-], the pIC50 is 7.99 on MMP-3, 8.77 against MMP-9 and 7.77 on MMP-2.

`COc1ccc(COc2ccc(-c3ccc(C(=O)CC(CCCc4ccccc4)C(=O)O)cc3)cc2)cc1` (stereo not drawn) [Example 105, [1,1'-Biphenyl]-4-butanoic acid, 4'-[(4-methoxyphenyl)methoxy]-γ-oxo-α-(3-phenylpropyl)-]: the results for the pIC50 at MMP-3 and at MMP-2 were 7.48 and 7.85, respectively. For the same compound, testing at 5 µM on MMP-9 gave an inhibition of 37%.

`CN(C)C(=O)c1cccc(SCC(CC(=O)c2ccc(-c3ccc(Cl)cc3)cc2)C(=O)O)c1` (stereo not drawn) [Example 437, [1,1'-Biphenyl]-4-butanoic acid, 4'-chloro-α-[[[3-[(dimethylamino)carbonyl]phenyl]thio]methyl]-γ-oxo-]: the pIC50 against MMP-3 was 7.30; at MMP-9 it was 6.44; at MMP-2, 7.82.

For the compound `Cc1cccc(C(=O)OC[C@@H]2CC[C@H](C(=O)c3ccc(-c4ccc(Cl)cc4)cc3)[C@H]2C(=O)O)c1` (relative stereo) [Example 379, Benzoic acid, 3-methyl-, [2-carboxy-3-[(4'-chloro[1,1'-biphenyl]-4-yl)carbonyl]cyclopentyl]methyl ester, (1α,2β,3α)-], the figures for the pIC50 against MMP-3, at MMP-9 and on MMP-2 were 7.20, 7.32 and 7.04, respectively.

`CCCCCOc1ccc(-c2ccc(C(=O)C3CCC=C3C(=O)O)cc2)cc1` (stereo not drawn) [Example 442, 1-Cyclopentene-1-carboxylic acid, 5-[[4'-(pentyloxy)[1,1'-biphenyl]-4-yl]carbonyl]-]: the pIC50 at MMP-3 was 5.56; on MMP-2 it was 6.02. Further, on MMP-9, the inhibition at 5 µM was 40%.

As for `O=C(CC(CCCc1ccccc1)C(=O)O)c1ccc(-c2ccc(OCc3ccc(C(F)(F)F)cc3)cc2)cc1` (stereo not drawn) [Example 104, [1,1'-Biphenyl]-4-butanoic acid, γ-oxo-α-(3-phenylpropyl)-4'-[[4-(trifluoromethyl)phenyl]methoxy]-], the pIC50 was 6.90 against MMP-3 and 7.20 at MMP-2. On MMP-9, this compound showed an inhibition at 5 µM of 18%.

Take `O=C(CC(CCN1C(=O)c2cccc3c(Br)ccc(c23)C1=O)C(=O)O)c1ccc(-c2ccc(Cl)cc2)cc1` (stereo not drawn) [Example 418]: the figures for the negative logarithm of the IC50 (pIC50) on MMP-3, against MMP-9 and on MMP-2 were 6.52, 7.05 and 6.38, respectively.

As to `O=C(c1ccc(-c2ccc(Cl)cc2)cc1)C1CCC(Sc2ccccc2)C1C(=O)O` (stereo not drawn) [Example 312, Cyclopentanecarboxylic acid, 2-[(4'-chloro[1,1'-biphenyl]-4-yl)carbonyl]-5-(phenylthio)-, (1α,2β,5α)-], the pIC50 against MMP-3 was 7.10; at MMP-9, 6.06; on MMP-2, 7.22.

Take `CCCCCCOc1ccc(-c2ccc(C(=O)CC(CCc3ccccc3)C(=O)O)cc2)cc1` (stereo not drawn) [Example 159, [1,1'-Biphenyl]-4-butanoic acid, 4'-(hexyloxy)-γ-oxo-α-(2-phenylethyl)-]: the pIC50 is 6.94 on MMP-3, less than 5.90 at MMP-9 and 7.38 on MMP-2.

Turning to `O=C(CC(CCNC(=O)c1ccccc1C(=O)O)C(=O)O)c1ccc(-c2ccc(Cl)cc2)cc1` (single isomer, unassigned) [Example 280, [1,1'-Biphenyl]-4-butanoic acid, α-[2-[(2-carboxybenzoyl)amino]ethyl]-4'-chloro-γ-oxo-], the pIC50 against MMP-3 was 6.84; against MMP-9 it was 7.18; on MMP-2, 7.54.

Regarding `O=C(CC(CC[S+]([O-])c1ccccc1)C(=O)O)c1ccc(-c2ccc(Cl)cc2)cc1` (stereo not drawn) [Example 428, [1,1'-Biphenyl]-4-butanoic acid, 4'-chloro-γ-oxo-α-[2-(phenylsulfinyl)ethyl]-], the pIC50 at MMP-3 was 7.28; at MMP-9 it was 6.92; on MMP-2 it was 7.80.

On to `O=C(CC(CN1C(=O)c2ccccc2C1=O)C(=O)O)c1ccc(-c2ccc(Cl)cc2)cc1` (stereo not drawn) [Example 276, 2H-Isoindole-2-propanoic acid, α-[2-(4'-chloro[1,1'-biphenyl]-4-yl)-2-oxoethyl]-1,3-dihydro-1,3-dioxo-], for which the pIC50 on MMP-3 is 6.58; against MMP-9, 6.56; on MMP-2 it was 7.41.

Consider `O=C(O)[C@H]1[C@H](CN2C(=O)c3cc(Cl)c(Cl)cc3C2=O)CC[C@@H]1C(=O)c1ccc(-c2ccc(Cl)cc2)cc1` (relative stereo) [Example 391, Cyclopentanecarboxylic acid, 2-[(4'-chloro[1,1'-biphenyl]-4-yl)carbonyl]-5-[(5,6-dichloro-1,3-dihydro-1,3-dioxo-2H-isoindol-2-yl)methyl]-, (1α,2β,5β)-], for which the pIC50 at MMP-3 was 7.72; on MMP-9 it was 8.38; at MMP-2 it was 7.85.

In the case of `O=C(O)[C@H]1[C@H](CSc2ccccc2)CC[C@@H]1C(=O)c1ccc(-c2ccc(Cl)cc2)cc1` (relative stereo) [Example 373, Cyclopentanecarboxylic acid, 2-[(4'-chloro[1,1'-biphenyl]-4-yl)carbonyl]-5-[(phenylthio)methyl]-, (1α,2β,5β)-], the pIC50 against MMP-3 was 7.25; against MMP-9, 6.95; at MMP-2, 7.62.

For the compound `CCCSC[C@@H]1CC[C@H](C(=O)c2ccc(-c3ccc(Cl)cc3)cc2)[C@H]1C(=O)O` (relative stereo) [Example 374, Cyclopentanecarboxylic acid, 2-[(4'-chloro[1,1'-biphenyl]-4-yl)carbonyl]-5-[(propylthio)methyl]-, (1α,2β,5β)-], the figures for the pIC50 on MMP-3, at MMP-9 and at MMP-2 were 7.27, 6.57 and 7.47, respectively.

For `CCCCCOc1ccc(-c2ccc(C(=O)CC(CCc3cccc(C(=O)N(CC)CC)c3)C(=O)O)cc2)cc1` (stereo not drawn) [Example 164, [1,1'-Biphenyl]-4-butanoic acid, α-[2-[3-[(diethylamino)carbonyl]phenyl]ethyl]-γ-oxo-4'-(pentyloxy)-], the pIC50 against MMP-3 was 7.52; against MMP-9 it was 7.09; at MMP-2, 8.41.

For `O=C(O)[C@H]1[C@H](COc2ccc(Cl)cc2)CC[C@@H]1C(=O)c1ccc(-c2ccc(Cl)cc2)cc1` (relative stereo) [Example 388, Cyclopentanecarboxylic acid, 2-[(4'-chloro[1,1'-biphenyl]-4-yl)carbonyl]-5-[(4-chlorophenoxy)methyl]-, (1α,2β,5β)-], the pIC50 on MMP-3 is 6.98; against MMP-9, 6.33; at MMP-2, 7.52.

Values taken from patent US5789434A, “Derivatives of substituted 4-biarylbutyric acid as matrix metalloprotease inhibitors” (priority 1995, dated 1998).
